{"source": "paper PMC5874699", "about": "“Antimicrobial and Antibiofilm Activity of UP-5, an Ultrashort Antimicrobial Peptide Designed Using Only Arginine and Biphenylalanine” (Pharmaceuticals, 2018)", "key": {"[1]": {"system": "P. aeruginosa (ATCC BAA-2114)", "type": "cell-based, Pseudomonas aeruginosa", "settings": "ATCC BAA-2114, 24 h", "description": "(§1) All bacterial susceptibility, biofilm, and synergistic assays of peptides, antibiotics, and peptides-antibiotics combinations used bacterial strains obtained from the American Type Tissue Culture Collection (ATCC, Manassas, VA, USA) that states the mechanism of resistance for each strain according to ATCC number. Gram-positive bacteria were represented by five strains, the wild type strain Staphylococcus aureus (ATCC 29213) and methicillin-resistant S. aureus (MRSA) (ATCC 33591) in addition to clinically isolated strains S. aureus (ATCC BAA-41& 43300) and Enterococcus faecalis (ATCC BAA-2316). The Gram-negative bacteria strains were represented by wild type strains of Escherichia coli (ATCC 25922 & 35218) and Pseudomonas aeruginosa (ATCC 27853) as well as the clinically isolated multidrug-resistant strain P. aeruginosa (ATCC BAA-2114). The bacteria were cultured onto Muller Hinton Agar (Scharlab, S.L, Barcelona, Spain). Mueller Hinton Broth (Oxoid Ltd., Basingstoke, UK) was used to prepare all bacterial suspensions and to dissolve the peptides and the antibiotics. The assay was performed in sterile 96-well polypropylene microtiter plates.\n(§2) All bacterial susceptibility assays were conducted according to the microbroth dilution method outlined by the Clinical and Laboratory Standards Institute (CLSI) guidelines.\n(§3) Briefly, pre-sterilized MHB was used as a growth medium for organisms obtained from stock media with glycerol. Bacterial cells were grown overnight in MHB and diluted to 10^6 CFU/mL in the same medium prior to use. For peptide, serial concentrations in the range of 0.5–100 μM were prepared. Then, 50 μL of each peptide concentration and 50 µL of diluted bacterial suspension were added to each well of a 96-well microtiter plate. Peptide solutions were prepared by dissolving the peptide in sterile MHB. Then, the plates were incubated overnight in a humidified atmosphere, and at 37 °C. Bacterial growth was determined by measuring the optical density (OD) at λ = 600 nm using an ELISA plate reader (Epoch, BioTek, Winooski, VT, USA) and the minimum inhibitory concentration (MIC) was determined.\n(§4) As described in the previous section, the MIC and MBC values of antibiotics employed in this study were determined against subjected bacterial strains via preparing different concentrations of each antibiotic."}, "S. aureus (ATCC 33591)": {"system": "S. aureus (ATCC 33591)", "assay": "Broth microdilution checkerboard, UP-5 with antibiotics", "type": "cell-based, Staphylococcus aureus", "settings": "S. aureus ATCC 33591, checkerboard, triplicate", "description": "as §1\n(§5) According to the broth microdilution checkerboard technique, the MIC and MBC values of peptide-antibiotics combinations against wild type and multidrug resistant bacterial strains were determined. Serial concentrations of peptide and each antibiotic were prepared in the range of 0.005–100 μM. In each well of a 96-well microtiter plate, 25 μL of each peptide concentration were added to 25 μL of each antibiotic concentration which is followed by adding 50 μL of diluted bacterial suspension (10^6 CFU/mL) to each well. The prepared concentrations of peptide and each antibiotic were arranged into rows and columns, respectively, in a 96-well microtiter plate according the checkerboard technique. Then as described previously (see Section 2.4.1), the procedure was followed. All MIC and MBC determinations of all assays were made in triplicate.\n(§6) The fractional inhibitory concentration (FIC) is defined as the inhibitory concentration of the antimicrobial combination divided by that of the single antimicrobial component. To calculate FIC index for peptide-antibiotic combinations, the following equation was used:(1) FIC index=MIC of drug X in combination/MIC of drug X alone+MIC of drug Y in combination/MIC of drug Y alone\n(§7) The FIC indices were interpreted as follows: ≤0.5: synergistic activity, 0.5–1: additive activity, 1–4 indifferent, >4: antagonism. Interpretation and assessment of the FIC indices were performed according to the broth microdilution checkerboard technique."}, "S. aureus (ATCC 43300)": {"system": "S. aureus (ATCC 43300)", "assay": "Broth microdilution checkerboard, UP-5 with antibiotics", "type": "cell-based, Staphylococcus aureus", "settings": "S. aureus ATCC 43300, checkerboard, triplicate", "description": "as §1, §5, §6, §7"}, "S. aureus (ATCC BAA-41)": {"system": "S. aureus (ATCC BAA-41)", "assay": "Broth microdilution checkerboard, UP-5 with antibiotics", "type": "cell-based, Staphylococcus aureus", "settings": "S. aureus ATCC BAA-41, checkerboard, triplicate", "description": "as §1, §5, §6, §7"}, "S. aureus (ATCC 29213)": {"system": "S. aureus (ATCC 29213)", "assay": "Broth microdilution checkerboard, UP-5 with antibiotics", "type": "cell-based, Staphylococcus aureus", "settings": "S. aureus ATCC 29213, checkerboard, triplicate", "description": "as §1, §5, §6, §7"}, "[2]": {"system": "Staphylococcus aureus (ATCC 29213)", "type": "cell-based", "settings": "ATCC 29213, 24 h", "description": "as §1, §2, §3, §4"}, "in vitro": {"assay": "in vitro", "type": "in vitro ADME", "settings": "mouse", "protocol": "The stability assay of UP-5 relied on a previously reported stability test procedure employing mouse plasma or mouse serum (PAA Laboratories, Pasching, Austria). Briefly, a stock solution of the peptide was prepared in 5% aqueous DMSO. The highest DMSO concentration was less than 0.5% after dilution in order to have a final concentration of peptide equal to 1 g/L. Each peptide was dissolved in plasma or serum at a final concentration corresponding to 75 µg/mL and incubated at 37 °C (750 rpm, Eppendorf, Hamburg, Germany). After different time periods, aliquots (47.5 µL) were taken and proteins were precipitated by addition of 150 µL of a mixture composed acetonitrile, water, and formic acid (89:10:1 by volume). The samples were incubated on ice for 45 min and centrifuged for 10 min at 13,000× g (Eppendorf, Hamburg, Germany). […] The second supernatant (155 µL) was collected and dried under vacuum. The samples were dissolved in 3% aqueous acetonitrile containing, 0.1% formic acid, and were analyzed using an Agilent 1100 HPLC system (Agilent Technologies, Santa Clara, CA, USA), coupled online to an Esquire HCT mass spectrometer (Bruker Daltonik GmbH, Bremen, Germany) equipped with an analytical Jupiter C18-reversed phase column (2 mm inner diameter, 150 mm length, 5 µm particle size, […]). Eluent A contained 0.1% formic acid in water and Eluent B was 60% aqueous acetonitrile containing 0.1% formic acid."}, "[3]": {"settings": "UP-5 in combination with Ampicillin"}, "[4]": {"settings": "UP-5 in combination with Chloramphenicol"}, "[5]": {"settings": "UP-5 in combination with Erythromycin"}, "[6]": {"settings": "UP-5 in combination with Levofloxacin"}, "[7]": {"settings": "UP-5 in combination with Rifampicin"}}, "note": "Square brackets hold non-standard residues; d marks the D form. Peptide text beside a SMILES is read from it. Bip = N[C@@H](Cc1ccc(-c2ccccc2)cc1)C(=O)O"}
{"molecule": "N=C(N)NCCC[C@H](NC(=O)[C@H](Cc1ccc(-c2ccccc2)cc1)NC(=O)[C@H](CCCNC(=N)N)NC(=O)[C@H](Cc1ccc(-c2ccccc2)cc1)NC(=O)[C@@H](N)CCCNC(=N)N)C(=O)O", "note": "[UP-5] (H-R[Bip]R[Bip]R-OH)", "values": [{"measurement": "MBC Value", "setting": "[1]", "result": 55, "unit": "µM"}, {"measurement": "MIC Value", "setting": "[1]", "result": 55, "unit": "µM"}, {"measurement": "UP-5 MIC in Combination", "setting": "S. aureus (ATCC 33591); [3]", "result": 1.25, "unit": "µM"}, {"measurement": "UP-5 MIC in Combination", "setting": "S. aureus (ATCC 33591); [4]", "result": 5, "unit": "µM"}, {"measurement": "UP-5 MIC in Combination", "setting": "S. aureus (ATCC 33591); [5]", "result": 0.125, "unit": "µM"}, {"measurement": "UP-5 MIC in Combination", "setting": "S. aureus (ATCC 33591); [6]", "result": 0.125, "unit": "µM"}, {"measurement": "UP-5 MIC in Combination", "setting": "S. aureus (ATCC 33591); [7]", "result": 0.125, "unit": "µM"}, {"measurement": "UP-5 MIC in Combination", "setting": "S. aureus (ATCC 43300); [3]", "result": 7.5, "unit": "µM"}, {"measurement": "UP-5 MIC in Combination", "setting": "S. aureus (ATCC 43300); [4]", "result": 7.5, "unit": "µM"}, {"measurement": "UP-5 MIC in Combination", "setting": "S. aureus (ATCC 43300); [5]", "result": 7.5, "unit": "µM"}, {"measurement": "UP-5 MIC in Combination", "setting": "S. aureus (ATCC 43300); [6]", "result": 0.025, "unit": "µM"}, {"measurement": "UP-5 MIC in Combination", "setting": "S. aureus (ATCC 43300); [7]", "result": 5, "unit": "µM"}, {"measurement": "UP-5 MIC in Combination", "setting": "S. aureus (ATCC BAA-41); [3]", "result": 7.5, "unit": "µM"}, {"measurement": "UP-5 MIC in Combination", "setting": "S. aureus (ATCC BAA-41); [4]", "result": 7.5, "unit": "µM"}, {"measurement": "UP-5 MIC in Combination", "setting": "S. aureus (ATCC BAA-41); [5]", "result": 15, "unit": "µM"}, {"measurement": "UP-5 MIC in Combination", "setting": "S. aureus (ATCC BAA-41); [6]", "result": 15, "unit": "µM"}, {"measurement": "UP-5 MIC in Combination", "setting": "S. aureus (ATCC BAA-41); [7]", "result": 15, "unit": "µM"}, {"measurement": "UP-5 MIC in Combination", "setting": "S. aureus (ATCC 29213); [3]", "result": 0.25, "unit": "µM"}, {"measurement": "UP-5 MIC in Combination", "setting": "S. aureus (ATCC 29213); [4]", "result": 2.5, "unit": "µM"}, {"measurement": "UP-5 MIC in Combination", "setting": "S. aureus (ATCC 29213); [5]", "result": 10, "unit": "µM"}, {"measurement": "UP-5 MIC in Combination", "setting": "S. aureus (ATCC 29213); [6]", "result": 0.125, "unit": "µM"}, {"measurement": "UP-5 MIC in Combination", "setting": "S. aureus (ATCC 29213); [7]", "result": 10, "unit": "µM"}, {"measurement": "MBC Value", "setting": "[2]", "result": 10, "unit": "µM"}, {"measurement": "MIC Value", "setting": "[2]", "result": 10, "unit": "µM"}, {"measurement": "half-life at 75 µg/mL", "setting": "in vitro; plasma", "result": 2.88, "unit": "h"}, {"measurement": "metabolised at 1 h, 75 µg/mL", "setting": "in vitro; plasma", "result": 27, "unit": "%"}, {"measurement": "metabolised at 4 h, 75 µg/mL", "setting": "in vitro; plasma", "result": 66, "unit": "%"}, {"measurement": "remaining at 1 h, 75 µg/mL", "setting": "in vitro; plasma", "result": 73, "unit": "%"}, {"measurement": "remaining at 4 h, 75 µg/mL", "setting": "in vitro; plasma", "result": 34, "unit": "%"}, {"measurement": "half-life at 75 µg/mL", "setting": "in vitro; serum", "result": "< 0.25", "unit": "h"}, {"measurement": "metabolised at 0.25 h, 75 µg/mL", "setting": "in vitro; serum", "result": "> 80", "unit": "%"}]}
